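Protocol summary: plate cells (96-well), add compound at 5 concentrations, incubate 48 h, interpolate endpoints linearly. GI50 = concentration required for 50% inhibition of growth. At the TGI there is no net growth.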
Key:
Assay in all cases: inhibition of tumour cell growth, NCI panel, 48 h
786-0 renal = tested on: 786-0 renal
A498 renal = tested on: A498 renal
A549 NSCLC = tested on: A549 NSCLC
ACHN renal = tested on: ACHN renal
BT-549 breast = tested on: BT-549 breast
CAKI-1 renal = tested on: CAKI-1 renal
CCRF-CEM leukemia = tested on: CCRF-CEM leukemia
COLO 205 colon = tested on: COLO 205 colon
DU-145 prostate = tested on: DU-145 prostate
EKVX NSCLC = tested on: EKVX NSCLC
HCC-2998 colon = tested on: HCC-2998 colon
HCT-116 colon = tested on: HCT-116 colon
HCT-15 colon = tested on: HCT-15 colon
HL-60(TB) leukemia = tested on: HL-60(TB) leukemia
HOP-62 NSCLC = tested on: HOP-62 NSCLC
HOP-92 NSCLC = tested on: HOP-92 NSCLC
HS 578T breast = tested on: HS 578T breast
HT29 colon = tested on: HT29 colon
IGROV1 ovarian = tested on: IGROV1 ovarian
K-562 leukemia = tested on: K-562 leukemia
KM12 colon = tested on: KM12 colon
LOX IMVI melanoma = tested on: LOX IMVI melanoma
M14 melanoma = tested on: M14 melanoma
MALME-3M melanoma = tested on: MALME-3M melanoma
MCF7 breast = tested on: MCF7 breast
MDA-MB-231 breast = tested on: MDA-MB-231 breast
MDA-MB-435 = tested on: MDA-MB-435
MOLT-4 leukemia = tested on: MOLT-4 leukemia
NCI-H226 lung = tested on: NCI-H226 lung
NCI-H23 lung = tested on: NCI-H23 lung
NCI-H460 lung = tested on: NCI-H460 lung
NCI-H522 lung = tested on: NCI-H522 lung
NCI/ADR-RES ovarian = tested on: NCI/ADR-RES ovarian
OVCAR-3 ovarian = tested on: OVCAR-3 ovarian
OVCAR-4 ovarian = tested on: OVCAR-4 ovarian
OVCAR-5 ovarian = tested on: OVCAR-5 ovarian
OVCAR-8 ovarian = tested on: OVCAR-8 ovarian
PC-3 prostate = tested on: PC-3 prostate
RPMI-8226 leukemia = tested on: RPMI-8226 leukemia
RXF 393 renal = tested on: RXF 393 renal
SF-268 CNS = tested on: SF-268 CNS
SF-295 CNS = tested on: SF-295 CNS
SF-539 CNS = tested on: SF-539 CNS
SK-MEL-2 melanoma = tested on: SK-MEL-2 melanoma
SK-MEL-28 melanoma = tested on: SK-MEL-28 melanoma
SK-MEL-5 melanoma = tested on: SK-MEL-5 melanoma
SK-OV-3 ovarian = tested on: SK-OV-3 ovarian
SN12C renal = tested on: SN12C renal
SNB-19 CNS = tested on: SNB-19 CNS
SNB-75 CNS = tested on: SNB-75 CNS
SR leukemia = tested on: SR leukemia
SW-620 colon = tested on: SW-620 colon
T-47D breast = tested on: T-47D breast
TK-10 renal = tested on: TK-10 renal
U251 CNS = tested on: U251 CNS
UACC-257 melanoma = tested on: UACC-257 melanoma
UACC-62 melanoma = tested on: UACC-62 melanoma
UO-31 renal = tested on: UO-31 renal

CC(C)(C)Nc1nc2c(OCCc3ccccc3)cccn2c1-c1cccc(F)c1
GI50 (786-0 renal): 13.5 µM
TGI (786-0 renal): 52.8 µM
GI50 (A498 renal): 15.8 µM
TGI (A498 renal): 65.1 µM
GI50 (A549 NSCLC): 4.4 µM
TGI (A549 NSCLC): > 100 µM
GI50 (ACHN renal): 4.63 µM
TGI (ACHN renal): > 100 µM
GI50 (BT-549 breast): 10.3 µM
TGI (BT-549 breast): 36.3 µM
GI50 (CAKI-1 renal): 5.22 µM
TGI (CAKI-1 renal): > 100 µM
GI50 (CCRF-CEM leukemia): 6.53 µM
TGI (CCRF-CEM leukemia): > 100 µM
GI50 (COLO 205 colon): 8.88 µM
TGI (COLO 205 colon): 26.8 µM
GI50 (DU-145 prostate): 9.13 µM
TGI (DU-145 prostate): > 100 µM
GI50 (EKVX NSCLC): 3.44 µM
TGI (EKVX NSCLC): > 100 µM
GI50 (HCC-2998 colon): 4.81 µM
TGI (HCC-2998 colon): 69.6 µM
GI50 (HCT-116 colon): 4.12 µM
TGI (HCT-116 colon): 36 µM
GI50 (HCT-15 colon): 3.51 µM
TGI (HCT-15 colon): 14.2 µM
GI50 (HL-60(TB) leukemia): 3.78 µM
TGI (HL-60(TB) leukemia): 18.8 µM
GI50 (HOP-62 NSCLC): 11.8 µM
TGI (HOP-62 NSCLC): 42 µM
GI50 (HOP-92 NSCLC): 3.3 µM
TGI (HOP-92 NSCLC): > 100 µM
GI50 (HS 578T breast): 10.1 µM
TGI (HS 578T breast): 64.2 µM
GI50 (HT29 colon): 5.02 µM
TGI (HT29 colon): 24 µM
GI50 (IGROV1 ovarian): 8.99 µM
TGI (IGROV1 ovarian): > 100 µM
GI50 (K-562 leukemia): 3.49 µM
TGI (K-562 leukemia): > 100 µM
GI50 (KM12 colon): 4.13 µM
TGI (KM12 colon): > 100 µM
GI50 (LOX IMVI melanoma): 5.02 µM
TGI (LOX IMVI melanoma): 17 µM
GI50 (M14 melanoma): 6.79 µM
TGI (M14 melanoma): 32.1 µM
GI50 (MALME-3M melanoma): 3.6 µM
TGI (MALME-3M melanoma): 22.8 µM
GI50 (MCF7 breast): 4.34 µM
TGI (MCF7 breast): 32.4 µM
GI50 (MDA-MB-231 breast): 10.2 µM
TGI (MDA-MB-231 breast): 26.2 µM
GI50 (MDA-MB-435): 5.07 µM
TGI (MDA-MB-435): 27.4 µM
GI50 (MOLT-4 leukemia): 3.22 µM
TGI (MOLT-4 leukemia): > 100 µM
GI50 (NCI-H226 lung): 6.29 µM
TGI (NCI-H226 lung): 63 µM
GI50 (NCI-H23 lung): 4.13 µM
TGI (NCI-H23 lung): 34.8 µM
GI50 (NCI-H460 lung): 5.5 µM
TGI (NCI-H460 lung): 24.8 µM
GI50 (NCI-H522 lung): 4.17 µM
TGI (NCI-H522 lung): 42.3 µM
GI50 (NCI/ADR-RES ovarian): 4.25 µM
TGI (NCI/ADR-RES ovarian): > 100 µM
GI50 (OVCAR-3 ovarian): 3.91 µM
TGI (OVCAR-3 ovarian): 39 µM
GI50 (OVCAR-4 ovarian): 4.52 µM
TGI (OVCAR-4 ovarian): > 100 µM
GI50 (OVCAR-5 ovarian): 8.58 µM
TGI (OVCAR-5 ovarian): > 100 µM
GI50 (OVCAR-8 ovarian): 9.39 µM
TGI (OVCAR-8 ovarian): > 100 µM
GI50 (PC-3 prostate): 4.91 µM
TGI (PC-3 prostate): > 100 µM
GI50 (RPMI-8226 leukemia): 3.7 µM
TGI (RPMI-8226 leukemia): 62.1 µM
GI50 (RXF 393 renal): 8.78 µM
TGI (RXF 393 renal): 29.2 µM
GI50 (SF-268 CNS): 7.84 µM
TGI (SF-268 CNS): > 100 µM
GI50 (SF-295 CNS): 4.41 µM
TGI (SF-295 CNS): 22 µM
GI50 (SF-539 CNS): 10.1 µM
TGI (SF-539 CNS): 23.1 µM
GI50 (SK-MEL-2 melanoma): 3.11 µM
TGI (SK-MEL-2 melanoma): 12.4 µM
GI50 (SK-MEL-28 melanoma): 3.93 µM
TGI (SK-MEL-28 melanoma): 74.6 µM
GI50 (SK-MEL-5 melanoma): 5.26 µM
TGI (SK-MEL-5 melanoma): 17.7 µM
GI50 (SK-OV-3 ovarian): 19.9 µM
TGI (SK-OV-3 ovarian): > 100 µM
GI50 (SN12C renal): 3.99 µM
TGI (SN12C renal): > 100 µM
GI50 (SNB-19 CNS): 5.81 µM
TGI (SNB-19 CNS): > 100 µM
GI50 (SNB-75 CNS): 16.1 µM
TGI (SNB-75 CNS): > 100 µM
GI50 (SR leukemia): 4.48 µM
TGI (SR leukemia): > 100 µM
GI50 (SW-620 colon): 11.3 µM
TGI (SW-620 colon): 87.1 µM
GI50 (T-47D breast): 3.55 µM
TGI (T-47D breast): > 100 µM
GI50 (TK-10 renal): 14.2 µM
TGI (TK-10 renal): > 100 µM
GI50 (U251 CNS): 6.19 µM
TGI (U251 CNS): 25.2 µM
GI50 (UACC-257 melanoma): 7.56 µM
TGI (UACC-257 melanoma): > 100 µM
GI50 (UACC-62 melanoma): 2.92 µM
TGI (UACC-62 melanoma): 12.2 µM
GI50 (UO-31 renal): 2.75 µM
TGI (UO-31 renal): 19.7 µM
